Source: patent US4895931A, “Phospholipase A2 -inhibiting peptides” (Kyowa Hakko Kogyo Co., Ltd., priority 1988, dated 1990)
Where a SMILES comes first, the peptide text is derived from it.

Biological target: T1, porcine pancreas PLA2 (Sus scrofa, UniProt P00592)
T1 construct: purchased Sigma Chemical Co. P6534; host or cells: porcine pancreas
Assay: PLA2-inhibiting activity (release of [1-14C] arachidonic acid from labelled phosphatidylcholine)
Type: biochemical
Conditions: for Inhibition ratio (Inhibition rate of test compound/Inhibition rate of Compound (IV)): Amount of sample: 100 mg, relative to Compound (IV) = 1.00
Description: A test compound was dissolved in 280 μl of 0.1M Tris-hydrochloride buffer (pH 8.8) containing 10 mM calcium chloride. To the solution was added a solution of 20 ng of porcine pancreas PLA2 (Sigma Chemical Co., catalog No. P6534) in 10 μl of the buffer having the same composition as above, followed by incubation at 37° C. for 10 minutes. To the resulting mixture was added a solution of 0.1 μCi of α-palmitoyl-β[1-^14 C] arachidonylphosphatidylcholine (54 μCi/μmol, NEN Research Products Co.) in 10 μl of the same buffer as above wherein micelles were formed, followed by incubation at 37° C. for 10 minutes. Then, 3 ml of a Dale reagent solution [2-propanol :n-heptane :1M sulfuric acid=40:10:1 v/v mixture; Methods in Enzymology 14, 167 (1969)] was added to stop the reaction, and 1.5 ml of n-heptane and 1 ml of water were added, followed by shaking. Radioactivity of the free [1-^14 C] arachidonic acid extracted to the heptane layer was measured. The value of this specific radioactivity is referred to as "a". Further, "b" and "c" refer to the specific radioactivity of the heptane layer obtained by adding the same amount of the buffer in place of the test compound solution and that of the heptane layer obtained by adding the same amount of the buffer in place of the test compound and PLA2, respectively. The inhibition rate (x) was calculated by the following equation: [formula]

T1 sequence (P00592 23-146): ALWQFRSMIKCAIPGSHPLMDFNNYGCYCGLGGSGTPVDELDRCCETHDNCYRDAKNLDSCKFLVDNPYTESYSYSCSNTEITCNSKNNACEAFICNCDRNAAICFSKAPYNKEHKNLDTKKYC

Molecule | Inhibition ratio (Inhibition rate of test compound/Inhibition rate of Compound (IV)) | other results
CC[C@H](C)[C@H](N)C(=O)N[C@@H](CCCCN)C(=O)N[C@@H](C)C(=O)N[C@@H](C)C(=O)N[C@@H](Cc1ccc(O)cc1)C(=O)N[C@@H](CC(C)C)C(=O)N[C@@H](CCC(N)=O)C(=O)N[C@@H](CCC(=O)O)C(=O)N[C@H](C(=O)NCC(=O)N[C@@H](CCCCN)C(=O)N1CCC[C@H]1C(=O)N[C@@H](CC(C)C)C(=O)N[C@@H](CC(=O)O)C(=O)N[C@@H](CCC(=O)O)C(=O)N[C@H](C(=O)N[C@@H](CC(C)C)C(=O)N[C@@H](CCCCN)C(=O)N[C@@H](CCCCN)C(=O)N[C@@H](C)C(=O)N[C@@H](CC(C)C)C(=O)N[C@H](C(=O)NCC(=O)N[C@@H](Cc1c[nH]cn1)C(=O)N[C@@H](CC(C)C)C(=O)N[C@@H](CCC(=O)O)C(=O)O)[C@@H](C)O)[C@@H](C)O)[C@@H](C)O [III] (H-IKAAYLQETGKPLDETLKKALTGHLE-OH) | 0.20 | –
CC[C@H](C)[C@H](NC(=O)[C@H](C)NC(=O)[C@@H](NC(=O)[C@H](CC(C)C)NC(=O)[C@H](CS)NC(=O)[C@@H](N)CCCCN)[C@@H](C)O)C(=O)N[C@H](C(=O)N[C@@H](CCCCN)C(=O)N[C@@H](CS)C(=O)N[C@@H](C)C(=O)N[C@H](C(=O)N[C@@H](CO)C(=O)N[C@@H](CCCCN)C(=O)N1CCC[C@H]1C(=O)N[C@@H](C)C(=O)O)[C@@H](C)O)C(C)C [VIII] (H-KCLTAIVKCATSKPA-OH; N-terminus and C-terminus assumed) | 1.06 | –
CC(C)C[C@H](NC(=O)[C@H](C)NC(=O)[C@H](CCCCN)NC(=O)[C@H](CCCCN)NC(=O)[C@H](CC(C)C)NC(=O)[C@@H](NC(=O)[C@H](CCC(=O)O)NC(=O)[C@H](CC(=O)O)NC(=O)[C@H](CC(C)C)NC(=O)[C@@H]1CCCN1C(=O)[C@@H](N)CCCCN)[C@@H](C)O)C(=O)N[C@H](C(=O)NCC(=O)N[C@@H](Cc1c[nH]cn1)C(=O)N[C@@H](CC(C)C)C(=O)N[C@@H](CCC(=O)O)C(=O)O)[C@@H](C)O [IV] (H-KPLDETLKKALTGHLE-OH) | 1.00 | PLA2-inhibiting activity (in words): medium
CC[C@H](C)[C@H](N)C(=O)N[C@@H](CCC(=O)O)C(=O)N[C@H](C(=O)N[C@@H](CC(C)C)C(=O)N[C@@H](C)C(=O)N[C@@H](CO)C(=O)N[C@@H](CCCNC(=N)N)C(=O)N[C@H](C(=O)N[C@@H](CC(N)=O)C(=O)N[C@@H](CCCCN)C(=O)N[C@@H](CCC(=O)O)C(=O)N[C@H](C(=O)N[C@@H](CCCNC(=N)N)C(=O)N[C@@H](CC(=O)O)C(=O)N[C@H](C(=O)O)[C@@H](C)CC)[C@@H](C)CC)[C@@H](C)O)[C@@H](C)CC [V] (H-IEILASRTNKEIRDI-OH) | 0.56 | –
CC[C@H](C)[C@H](N)C(=O)N[C@@H](CCCCN)C(=O)N[C@@H](C)C(=O)N[C@@H](Cc1ccccc1)C(=O)N[C@@H](Cc1ccc(O)cc1)C(=O)N[C@@H](CCC(N)=O)C(=O)N[C@@H](CCCCN)C(=O)N[C@@H](CCSC)C(=O)N[C@@H](Cc1ccc(O)cc1)C(=O)NCC(=O)N[C@H](C(=O)N[C@@H](CO)C(=O)N[C@@H](CC(C)C)C(=O)N[C@@H](CS)C(=O)N[C@@H](CCC(N)=O)C(=O)N[C@@H](C)C(=O)O)[C@@H](C)CC [XII] (H-IKAFYQKMYGISLCQA-OH) | – | IC50 compared with that of lipocortin (in words): almost equal to that of lipocortin; IC50 (read-out: IC50 (concentration required for inhibiting the PLA2 activity by 50%) (converted)): 1070 nM
CC[C@H](C)[C@H](NC(=O)[C@H](CCCNC(=N)N)NC(=O)[C@@H](NC(=O)[C@H](CC(C)C)NC(=O)[C@H](C)NC(=O)[C@H](CCCCN)NC(=O)[C@H](Cc1c[nH]cn1)NC(=O)[C@H](CCCNC(=N)N)NC(=O)[C@@H](NC(=O)CNC(=O)[C@@H](NC(=O)CN)C(C)C)[C@@H](C)O)[C@@H](C)CC)C(=O)N[C@@H](CCSC)C(=O)N[C@H](C(=O)N[C@@H](CO)C(=O)N[C@@H](CCCNC(=N)N)C(=O)O)C(C)C [X] (H-GVGTRHKALIRIMVSR-OH; N-terminus and C-terminus assumed) | 1.19 | –
rLC: lipocortin prepared using Escherichia coli according to the method of Wallner, et al. (protein, UniProt P04083 2-346, looked up, recombinant, E. coli) Annexin A1: AMVSEFLKQAWFIENEEQEYVQTVKSSKGGPGSAVSPYPTFNPSSDVAALHKAIMVKGVDEATIIDILTKRNNAQRQQIKAAYLQETGKPLDETLKKALTGHLEEVVLALLKTPAQFDADELRAAMKGLGTDEDTLIEILASRTNKEIRDINRVYREELKRDLAKDITSDTSGDFRNALLSLAKGDRSEDFGVNEDLADSDARALYEAGERRKGTDVNVFNTILTTRSYPQLRRVFQKYTKYSKHDMNKVLDLELKGDIEKCLTAIVKCATSKPAFFAEKLHQAMKGVGTRHKALIRIMVSRSEIDMNDIKAFYQKMYGISLCQAILDETKGDYEKILVALCGGN | – | IC50 (concentration required for inhibiting the PLA2 activity by 50%): 1.5 µg/mL
